Assays:
Assay in all cases: Kinase panel study
Type in all cases: biochemical
Conditions in all cases: read-out: Percentage of inhibition; for inhibition at 1 µM: 1000nM; for inhibition at 10 µM: 10000nM
AMPK A1/B1/G1 = target: T1, AMPK A1/B1/G1 (Homo sapiens, UniProt Q13131)
T1 construct: purchased Thermo Fisher Scientific
Procedure, shortened: (§1)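 In vitro, kinase panel; ZLyte or Adapta SOP; single-concentration testing (1 or 10 µM); output = % inhibition, plus IC50 in panel.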

MARK1 (MARK) = target: T2, MARK1 (MARK) (Homo sapiens, UniProt Q9P0L2)
T2 construct: purchased Thermo Fisher Scientific
T2 sequence (Q9P0L2 whole entry): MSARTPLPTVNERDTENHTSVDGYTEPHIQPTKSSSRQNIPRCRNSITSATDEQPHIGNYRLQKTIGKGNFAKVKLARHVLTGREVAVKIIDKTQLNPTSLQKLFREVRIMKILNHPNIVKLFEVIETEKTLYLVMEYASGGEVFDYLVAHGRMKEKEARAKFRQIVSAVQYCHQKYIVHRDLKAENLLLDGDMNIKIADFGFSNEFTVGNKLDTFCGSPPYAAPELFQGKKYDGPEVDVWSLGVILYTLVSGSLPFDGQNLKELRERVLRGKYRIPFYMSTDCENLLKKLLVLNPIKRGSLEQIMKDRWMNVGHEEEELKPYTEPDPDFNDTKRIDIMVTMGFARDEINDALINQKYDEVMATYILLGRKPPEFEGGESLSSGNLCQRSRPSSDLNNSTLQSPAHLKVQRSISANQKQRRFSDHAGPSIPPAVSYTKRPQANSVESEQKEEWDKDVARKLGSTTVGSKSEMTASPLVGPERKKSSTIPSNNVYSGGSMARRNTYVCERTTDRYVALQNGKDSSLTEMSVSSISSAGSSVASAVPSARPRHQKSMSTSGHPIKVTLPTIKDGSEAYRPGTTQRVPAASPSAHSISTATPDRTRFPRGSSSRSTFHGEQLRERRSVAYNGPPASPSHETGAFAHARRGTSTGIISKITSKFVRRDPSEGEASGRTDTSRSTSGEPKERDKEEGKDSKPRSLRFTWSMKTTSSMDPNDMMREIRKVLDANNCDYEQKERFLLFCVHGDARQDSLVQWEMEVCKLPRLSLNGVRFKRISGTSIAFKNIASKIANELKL
Procedure, shortened: as §1

EPHA5 = target: T3, EPHA5 (Homo sapiens, UniProt P54756)
T3 construct: purchased Thermo Fisher Scientific
T3 sequence (P54756 25-1037): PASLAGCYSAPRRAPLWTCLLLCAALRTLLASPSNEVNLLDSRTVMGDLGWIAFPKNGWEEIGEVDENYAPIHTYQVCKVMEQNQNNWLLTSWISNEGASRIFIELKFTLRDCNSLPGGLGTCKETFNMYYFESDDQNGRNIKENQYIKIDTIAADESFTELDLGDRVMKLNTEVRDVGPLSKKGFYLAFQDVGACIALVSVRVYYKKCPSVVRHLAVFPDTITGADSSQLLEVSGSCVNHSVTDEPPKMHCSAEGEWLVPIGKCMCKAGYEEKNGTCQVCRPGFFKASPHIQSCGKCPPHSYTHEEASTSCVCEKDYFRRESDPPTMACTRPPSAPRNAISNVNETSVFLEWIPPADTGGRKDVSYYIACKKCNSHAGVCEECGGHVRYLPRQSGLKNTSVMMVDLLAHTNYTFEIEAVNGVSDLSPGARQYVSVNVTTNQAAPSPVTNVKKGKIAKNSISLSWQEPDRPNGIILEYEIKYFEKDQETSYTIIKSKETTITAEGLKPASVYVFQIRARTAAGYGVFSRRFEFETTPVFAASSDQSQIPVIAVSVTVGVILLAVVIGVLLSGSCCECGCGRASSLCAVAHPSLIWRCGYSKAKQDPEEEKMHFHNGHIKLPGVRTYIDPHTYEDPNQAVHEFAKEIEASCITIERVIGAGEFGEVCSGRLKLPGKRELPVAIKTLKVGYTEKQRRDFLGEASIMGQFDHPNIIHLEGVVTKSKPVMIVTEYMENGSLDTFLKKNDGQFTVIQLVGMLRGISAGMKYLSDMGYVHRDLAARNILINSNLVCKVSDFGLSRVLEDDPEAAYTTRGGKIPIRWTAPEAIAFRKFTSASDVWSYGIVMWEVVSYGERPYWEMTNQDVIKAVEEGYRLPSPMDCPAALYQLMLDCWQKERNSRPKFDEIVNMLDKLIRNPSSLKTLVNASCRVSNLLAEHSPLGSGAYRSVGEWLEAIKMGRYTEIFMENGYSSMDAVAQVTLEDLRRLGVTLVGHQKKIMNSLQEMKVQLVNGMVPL
Procedure, shortened: as §1

LRRK2 G2019S FL = target: T4, LRRK2 G2019S FL (Homo sapiens, UniProt Q5S007, G2019S)
T4 construct: LRRK2 G2019S FL; purchased Thermo Fisher Scientific
Procedure, shortened: as §1

MERTK (cMER) = target: T5, MERTK (cMER) (Homo sapiens, UniProt Q12866)
T5 construct: purchased Thermo Fisher Scientific
T5 sequence (Q12866 21-999): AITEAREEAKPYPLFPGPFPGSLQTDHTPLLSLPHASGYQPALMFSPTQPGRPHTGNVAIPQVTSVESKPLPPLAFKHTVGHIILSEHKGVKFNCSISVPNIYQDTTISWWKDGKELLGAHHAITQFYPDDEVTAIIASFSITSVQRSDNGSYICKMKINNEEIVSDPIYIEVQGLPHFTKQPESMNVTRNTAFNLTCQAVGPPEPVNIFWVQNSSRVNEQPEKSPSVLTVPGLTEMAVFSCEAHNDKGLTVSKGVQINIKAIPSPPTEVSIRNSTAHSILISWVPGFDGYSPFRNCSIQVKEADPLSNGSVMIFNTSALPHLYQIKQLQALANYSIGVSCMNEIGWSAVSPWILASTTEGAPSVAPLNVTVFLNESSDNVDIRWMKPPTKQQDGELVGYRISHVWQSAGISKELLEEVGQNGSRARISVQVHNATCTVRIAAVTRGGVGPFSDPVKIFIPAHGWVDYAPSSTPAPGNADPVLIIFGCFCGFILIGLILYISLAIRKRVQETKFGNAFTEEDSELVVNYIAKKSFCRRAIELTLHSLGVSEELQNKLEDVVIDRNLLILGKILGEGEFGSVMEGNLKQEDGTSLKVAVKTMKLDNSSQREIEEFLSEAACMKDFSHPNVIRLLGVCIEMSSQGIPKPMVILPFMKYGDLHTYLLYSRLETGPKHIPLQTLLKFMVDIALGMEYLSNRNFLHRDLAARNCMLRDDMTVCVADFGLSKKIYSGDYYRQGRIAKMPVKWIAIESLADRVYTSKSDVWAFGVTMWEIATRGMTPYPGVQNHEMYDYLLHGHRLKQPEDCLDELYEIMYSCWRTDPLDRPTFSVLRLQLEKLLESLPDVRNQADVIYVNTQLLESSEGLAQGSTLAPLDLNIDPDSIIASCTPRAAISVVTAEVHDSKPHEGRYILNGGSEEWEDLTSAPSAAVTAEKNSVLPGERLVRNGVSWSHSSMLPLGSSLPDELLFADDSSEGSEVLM
Procedure, shortened: as §1

PKN1 (PRK1) = target: T6, PKN1 (PRK1) (Homo sapiens, UniProt Q16512)
T6 construct: purchased Thermo Fisher Scientific
T6 sequence (Q16512 whole entry): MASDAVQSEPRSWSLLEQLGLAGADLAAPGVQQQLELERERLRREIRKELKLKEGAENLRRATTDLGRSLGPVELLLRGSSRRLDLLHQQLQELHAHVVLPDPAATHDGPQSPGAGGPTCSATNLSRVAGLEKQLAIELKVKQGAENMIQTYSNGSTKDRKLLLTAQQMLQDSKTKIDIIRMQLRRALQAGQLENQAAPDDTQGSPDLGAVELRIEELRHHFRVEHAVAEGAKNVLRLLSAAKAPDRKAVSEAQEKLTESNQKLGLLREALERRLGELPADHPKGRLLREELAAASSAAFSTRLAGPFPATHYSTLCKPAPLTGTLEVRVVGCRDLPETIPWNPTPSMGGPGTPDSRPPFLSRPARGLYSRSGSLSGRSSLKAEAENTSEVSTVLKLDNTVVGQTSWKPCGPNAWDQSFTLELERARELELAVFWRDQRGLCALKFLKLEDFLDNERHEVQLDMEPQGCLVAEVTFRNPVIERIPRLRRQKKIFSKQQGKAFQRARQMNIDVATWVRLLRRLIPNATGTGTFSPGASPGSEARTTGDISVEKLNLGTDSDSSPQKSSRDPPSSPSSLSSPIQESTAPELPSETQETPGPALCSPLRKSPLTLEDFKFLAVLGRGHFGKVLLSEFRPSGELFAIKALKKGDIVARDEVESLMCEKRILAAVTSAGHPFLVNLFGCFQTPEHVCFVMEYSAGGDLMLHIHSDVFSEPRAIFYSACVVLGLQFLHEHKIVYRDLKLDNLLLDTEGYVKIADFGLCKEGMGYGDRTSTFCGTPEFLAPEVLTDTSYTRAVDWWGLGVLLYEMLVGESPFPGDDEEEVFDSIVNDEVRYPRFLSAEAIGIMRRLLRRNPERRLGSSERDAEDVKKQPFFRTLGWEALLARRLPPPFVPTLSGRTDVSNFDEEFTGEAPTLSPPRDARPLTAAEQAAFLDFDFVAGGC
Procedure, shortened: as §1

[1] = target: T7, CSNK1E (CK1 epsilon) R178C (Homo sapiens, UniProt P49674, R178C)
T7 construct: purchased Thermo Fisher Scientific
T7 sequence (P49674 1-416 R178C): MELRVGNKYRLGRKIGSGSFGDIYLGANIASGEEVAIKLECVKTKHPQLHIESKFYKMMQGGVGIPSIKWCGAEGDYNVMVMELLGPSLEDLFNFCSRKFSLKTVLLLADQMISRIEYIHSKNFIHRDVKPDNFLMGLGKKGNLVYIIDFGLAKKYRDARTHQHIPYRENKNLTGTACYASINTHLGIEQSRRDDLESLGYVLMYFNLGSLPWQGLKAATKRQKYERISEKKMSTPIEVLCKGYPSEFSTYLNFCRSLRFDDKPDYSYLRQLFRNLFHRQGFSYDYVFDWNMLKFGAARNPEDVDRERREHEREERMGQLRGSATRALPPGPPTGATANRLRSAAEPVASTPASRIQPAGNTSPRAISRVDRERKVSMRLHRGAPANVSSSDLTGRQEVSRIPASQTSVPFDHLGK
Procedure, shortened: as §1

CSNK1D (CK1 delta) = target: T8, CSNK1D (CK1 delta) (Homo sapiens, UniProt P48730)
T8 construct: purchased Thermo Fisher Scientific
T8 sequence (P48730 whole entry): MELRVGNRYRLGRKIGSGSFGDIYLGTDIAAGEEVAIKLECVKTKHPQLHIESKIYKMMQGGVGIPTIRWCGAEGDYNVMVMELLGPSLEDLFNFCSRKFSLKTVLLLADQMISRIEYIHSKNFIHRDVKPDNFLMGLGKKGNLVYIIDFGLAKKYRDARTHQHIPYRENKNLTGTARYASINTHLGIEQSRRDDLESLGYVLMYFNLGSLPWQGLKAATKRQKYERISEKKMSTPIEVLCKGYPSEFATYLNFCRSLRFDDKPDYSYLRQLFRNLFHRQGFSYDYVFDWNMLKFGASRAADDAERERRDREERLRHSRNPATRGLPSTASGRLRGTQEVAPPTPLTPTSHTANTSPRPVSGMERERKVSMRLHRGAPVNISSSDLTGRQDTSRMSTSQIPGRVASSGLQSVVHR
Procedure, shortened: as §1

T1 sequence (Q13131 whole entry): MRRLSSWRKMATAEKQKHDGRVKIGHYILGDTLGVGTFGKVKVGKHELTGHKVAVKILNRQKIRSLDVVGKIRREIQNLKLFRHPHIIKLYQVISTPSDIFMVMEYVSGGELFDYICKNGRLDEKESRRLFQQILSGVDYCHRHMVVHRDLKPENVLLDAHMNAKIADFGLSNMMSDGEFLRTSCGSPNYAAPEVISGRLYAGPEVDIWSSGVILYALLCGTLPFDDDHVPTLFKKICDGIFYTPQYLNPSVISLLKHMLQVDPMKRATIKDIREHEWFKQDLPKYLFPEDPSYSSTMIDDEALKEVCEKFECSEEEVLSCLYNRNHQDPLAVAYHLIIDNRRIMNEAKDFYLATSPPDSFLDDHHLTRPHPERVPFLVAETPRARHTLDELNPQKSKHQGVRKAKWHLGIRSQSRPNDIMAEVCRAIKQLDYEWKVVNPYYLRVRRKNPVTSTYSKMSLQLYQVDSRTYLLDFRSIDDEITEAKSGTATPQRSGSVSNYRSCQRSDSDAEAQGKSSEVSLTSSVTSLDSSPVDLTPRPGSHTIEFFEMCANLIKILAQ
T1 sequence (Q9Y478 whole entry partner): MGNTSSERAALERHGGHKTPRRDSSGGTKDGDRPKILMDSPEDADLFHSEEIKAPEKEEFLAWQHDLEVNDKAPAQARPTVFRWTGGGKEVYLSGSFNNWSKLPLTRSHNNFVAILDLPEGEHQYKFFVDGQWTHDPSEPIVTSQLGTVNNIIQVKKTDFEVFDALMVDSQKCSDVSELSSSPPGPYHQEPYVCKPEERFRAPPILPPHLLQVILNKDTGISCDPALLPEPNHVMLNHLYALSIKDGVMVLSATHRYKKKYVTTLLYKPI
T1 sequence (P54619 whole entry partner): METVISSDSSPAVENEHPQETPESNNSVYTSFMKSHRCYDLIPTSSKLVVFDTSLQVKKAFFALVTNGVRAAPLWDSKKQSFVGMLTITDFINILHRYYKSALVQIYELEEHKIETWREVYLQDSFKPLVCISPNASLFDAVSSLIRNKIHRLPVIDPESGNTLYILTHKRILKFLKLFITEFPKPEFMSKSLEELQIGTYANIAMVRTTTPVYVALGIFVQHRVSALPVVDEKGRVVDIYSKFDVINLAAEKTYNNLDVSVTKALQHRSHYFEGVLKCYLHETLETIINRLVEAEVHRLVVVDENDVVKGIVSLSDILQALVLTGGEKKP

Row | SMILES | inhibition at 1 µM (AMPK A1/B1/G1) [%] | inhibition at 10 µM (AMPK A1/B1/G1) [%] | inhibition at 1 µM (MARK1 (MARK)) [%] | inhibition at 10 µM (MARK1 (MARK)) [%] | inhibition at 1 µM (EPHA5) [%] | inhibition at 10 µM (EPHA5) [%] | inhibition at 1 µM (LRRK2 G2019S FL) [%] | inhibition at 10 µM (LRRK2 G2019S FL) [%] | inhibition at 1 µM (MERTK (cMER)) [%] | inhibition at 10 µM (MERTK (cMER)) [%] | inhibition at 1 µM (PKN1 (PRK1)) [%] | inhibition at 10 µM (PKN1 (PRK1)) [%] | inhibition at 1 µM [1] [%] | inhibition at 10 µM [1] [%] | inhibition at 1 µM (CSNK1D (CK1 delta)) [%] | inhibition at 10 µM (CSNK1D (CK1 delta)) [%]
1 | COc1ccc2cc3c(N)nn(C(=O)c4cccc(N(C)C)c4)c3nc2c1 [MW05, (3-Amino-7-methoxypyrazolo[3,4-b]quinolin-1-yl)-[3-(dimethylamino)phenyl]methanone] | 6 | -3 | 3 | -5 | -8 | -16 | -1 | 11 | 4 | 11 | 15 | 4 | 0 | 6 | -1 | -1
2 | COc1ccc2c(c1OC)c(=O)n1c3ccc(O)cc3c3ccnc2c31 [MW01, 5-Hydroxy-10,11-dimethoxy-9H-benzo[c]indolo[3,2,1-ij][1,5]naphthyridin-9-one] | 4 | 14 | 4 | 6 | -4 | 7 | 87 | 90 | 54 | 86 | 9 | 16 | 23 | 64 | 13 | 39
